Consider 3 compounds from US20100286101A1, “PHARMACEUTICAL COMPOSITION INCLUDING A CORTICOSTEROID AND A VITAMIN D ANALOG HAVING IMPROVED STABILITY” (priority 2009, published 2010).

A short description of the series: Solvent attributes (dipolar, H-bonding, miscibility in mineral oil). Format: physicochemical.

Regarding Polysorbate 80, the Dipolar result is “Yes”, the H-bonding entry is listed as “Yes” and the “Miscibility in oil (mineral oil)” value is recorded as “No”.

As for Sorbitan Sesquioleate, the Dipolar entry was “Yes”, the H-bonding result is “Yes” and the “Miscibility in oil (mineral oil)” value is given as “Yes”.

Turning to `CC(O)CO` (stereo not drawn) [Propylene Glycol], the Dipolar result is recorded as “Yes”, the H-bonding entry is listed as “Yes” and the “Miscibility in oil (mineral oil)” value was “No”.
